Patent US20250340557A1, “PYRIMIDINE DERIVATIVE” (ASKA PHARMACEUTICAL CO., LTD., priority 2022, published 2025)

What follows are molecules tested against T1, human mPGES-1 (Homo sapiens, UniProt O14684) (assay: Test for mPGES-1 inhibitory activity (microsomal enzyme, PGE2 EIA)). Conditions: microsomes from COS-1 cells transfected with human mPGES-1 cDNA; substrate PGH2 1 μM; 4° C., 4 minutes; PGE2 measured by EIA; read-out: h mPGES1 IC50.
T1 construct: made in house; host or cells: COS-1 cells (transient transfection; microsomal fraction used as enzyme)
T1 sequence (O14684 1-152): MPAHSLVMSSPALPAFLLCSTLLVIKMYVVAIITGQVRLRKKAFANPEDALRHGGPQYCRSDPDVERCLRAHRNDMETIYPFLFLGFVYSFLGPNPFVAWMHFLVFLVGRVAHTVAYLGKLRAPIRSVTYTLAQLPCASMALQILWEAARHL
Assay type: biochemical
Summary of the method: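 IC50 values were derived from EIA-quantified PGE2 after a 4 min, 4 °C reaction with PGH2 at 1 μM final, stopped with ferric chloride/citric acid. Beforehand, compound (2% DMSO final) sat 15 min at 4 °C with human mPGES-1 microsomes from transiently transfected COS-1 cells. Buffer was sodium phosphate pH 7.2 containing 2.5 mM reduced glutathione and 1 mM EDTA.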

Structure (SMILES)	IC50 [nM]
O=C(NCc1ccc(C(F)(F)F)c(-c2nc(C(F)F)cc(=O)[nH]2)c1F)C1CCN(c2ncc(Cl)cc2Cl)CC1 [Example 45, 1-(3,5-dichloropyridin-2-yl)-N-{3-[4-(difluoromethyl)-6-oxo-1,6-dihydropyrimidin-2-yl]-2-fluoro-4-(trifluoromethyl)benzyl}piperidine-4-carboxamide]	15
O=c1cc(C(F)(F)F)nc(-c2c(C(F)(F)F)ccc(CNC(=O)[C@H]3CC[C@H](OCc4cc(F)cc(F)c4)CC3)c2F)[nH]1 [Example 117, trans-4-[(3,5-difluorobenzyl)oxy]-N-{2-fluoro-3-[6-oxo-4-(trifluoromethyl)-1,6-dihydropyrimidin-2-yl]-4-(trifluoromethyl)benzyl}cyclohexane-1-carboxamide]	< 1
O=C(NCc1ccc(C(F)(F)F)c(-c2nc(C(F)F)cc(=O)[nH]2)c1F)C1CCN(c2ccc(Cl)c(Cl)c2)CC1 [Example 84, 1-(3,4-dichlorophenyl)-N-{3-[4-(difluoromethyl)-6-oxo-1,6-dihydropyrimidin-2-yl]-2-fluoro-4-(trifluoromethyl)benzyl}piperidine-4-carboxamide]	5.2
CCc1nc(-c2c(C(F)(F)F)ccc(CNC(=O)C3CCN(c4ccc(C(F)(F)F)cn4)CC3)c2F)[nH]c(=O)c1F [Example 42, N-[3-(4-ethyl-5-fluoro-6-oxo-1,6-dihydropyrimidin-2-yl)-2-fluoro-4-(trifluoromethyl)benzyl]-1-[5-(trifluoromethyl)pyridin-2-yl]piperidine-4-carboxamide]	< 1
Cc1cc(=O)[nH]c(-c2c(C(F)(F)F)ccc(CNC(=O)[C@H]3CC[C@H](OCc4cccc(Cl)c4)CC3)c2F)n1 [Example 111, trans-4-[(3-chlorobenzyl)oxy]-N-[2-fluoro-3-(4-methyl-6-oxo-1,6-dihydropyrimidin-2-yl)-4-(trifluoromethyl)benzyl]cyclohexane-1-carboxamide]	19
O=C(NCc1ccc(C(F)(F)F)c(-c2nc(C(F)(F)F)cc(=O)[nH]2)c1F)C1CCN(c2ccc(C(F)(F)F)cc2)CC1 [Example 63, N-{2-fluoro-3-[6-oxo-4-(trifluoromethyl)-1,6-dihydropyrimidin-2-yl]-4-(trifluoromethyl)benzyl}-1-[4-(trifluoromethyl)phenyl]piperidine-4-carboxamide]	1.1
Cc1cc(=O)[nH]c(-c2c(C(F)(F)F)ccc(CNC(=O)[C@H]3CC[C@H](OCc4cccc(C(F)(F)F)c4)CC3)c2F)n1 [Example 109, trans-N-[2-fluoro-3-(4-methyl-6-oxo-1,6-dihydropyrimidin-2-yl)-4-(trifluoromethyl)benzyl]-4-{[3-(trifluoromethyl)benzyl]oxy}cyclohexane-1-carboxamide]	10
O=C(NCc1ccc(C(F)(F)F)c(-c2nc(C(F)(F)F)cc(=O)[nH]2)c1F)C1CCN(c2ncc(Cl)cc2F)CC1 [Example 37, 1-(5-chloro-3-fluoropyridin-2-yl)-N-{2-fluoro-3-[6-oxo-4-(trifluoromethyl)-1,6-dihydropyrimidin-2-yl]-4-(trifluoromethyl)benzyl}piperidine-4-carboxamide]	18
O=c1cc(C(F)(F)F)nc(-c2c(C(F)(F)F)ccc(CNC(=O)[C@H]3C[C@H](OCc4cccc(Cl)c4)C3)c2F)[nH]1 [Example 138, trans-3-[(3-chlorobenzyl)oxy]-N-{2-fluoro-3-[6-oxo-4-(trifluoromethyl)-1,6-dihydropyrimidin-2-yl]-4-(trifluoromethyl)benzyl}cyclobutane-1-carboxamide]	< 1
Cc1cc(=O)[nH]c(-c2c(C(F)(F)F)ccc(CNC(=O)C3CCN(c4ccc(OC(F)(F)F)cc4)CC3)c2F)n1 [Example 87, N-[2-fluoro-3-(4-methyl-6-oxo-1,6-dihydropyrimidin-2-yl)-4-(trifluoromethyl)benzyl]-1-[4-(trifluoromethoxy)phenyl]piperidine-4-carboxamide]	39
O=C(NCc1ccc(C(F)(F)F)c(-c2nc(C(F)(F)F)cc(=O)[nH]2)c1F)C1CCN(c2ccc3nccn3n2)CC1 [Example 1, N-{2-fluoro-3-[6-oxo-4-(trifluoromethyl)-1,6-dihydropyrimidin-2-yl]-4-(trifluoromethyl)benzyl}-1-(imidazo[1,2-b]pyridazin-6-yl)piperidine-4-carboxamide]	37

Same assay, conditions: microsomes of COS-1 cells transfected with human mPGES-1 cDNA; PGH2 1 μM; 4° C., 4 minutes; PGE2 by EIA; read-out: h mPGES1 IC50

Structure (SMILES)	IC50 [nM]
O=c1cc(C(F)F)nc(-c2c(C(F)(F)F)ccc(CNC(=O)[C@H]3C[C@H](OCc4ccc(F)c(Cl)c4)C3)c2F)[nH]1 [Example 176, trans-3-[(3-chloro-4-fluorobenzyl)oxy]-N-{3-[4-(difluoromethyl)-6-oxo-1,6-dihydropyrimidin-2-yl]-2-fluoro-4-(trifluoromethyl)benzyl}cyclobutane-1-carboxamide]	< 1
O=C(NCc1ccc(C(F)(F)F)c(-c2nc(C(F)(F)F)cc(=O)[nH]2)c1F)N1CCC(Oc2ccc(C(F)(F)F)cc2)CC1 [Example 260, N-{2-fluoro-3-[6-oxo-4-(trifluoromethyl)-1,6-dihydropyrimidin-2-yl]-4-(trifluoromethyl)benzyl}-4-[4-(trifluoromethyl)phenoxy]piperidine-1-carboxamide]	< 1
CCc1nc(-c2c(C(F)(F)F)ccc(CNC(=O)[C@H]3C[C@H](OCc4ccc(Cl)cc4)C3)c2F)[nH]c(=O)c1F [Example 231, trans-3-[(4-chlorobenzyl)oxy]-N-[3-(4-ethyl-5-fluoro-6-oxo-1,6-dihydropyrimidin-2-yl)-2-fluoro-4-(trifluoromethyl)benzyl]cyclobutane-1-carboxamide]	< 1
Cc1nc(-c2c(C(F)(F)F)ccc(CNC(=O)[C@H]3C[C@H](OCc4cccc(Cl)c4)C3)c2F)[nH]c(=O)c1C [Example 246, trans-3-[(3-chlorobenzyl)oxy]-N-[3-(4,5-dimethyl-6-oxo-1,6-dihydropyrimidin-2-yl)-2-fluoro-4-(trifluoromethyl)benzyl]cyclobutane-1-carboxamide]	< 1
Cc1nc(-c2c(C(F)(F)F)ccc(CNC(=O)[C@H]3C[C@H](OCc4ccccc4Cl)C3)c2F)[nH]c(=O)c1F [Example 212, trans-3-[(2-chlorobenzyl)oxy]-N-[2-fluoro-3-(5-fluoro-4-methyl-6-oxo-1,6-dihydropyrimidin-2-yl)-4-(trifluoromethyl)benzyl]cyclobutane-1-carboxamide]	< 1
Cc1cc(=O)[nH]c(-c2c(C(F)(F)F)ccc(CNC(=O)[C@H]3C[C@H](OCc4cccc(Cl)c4F)C3)c2F)n1 [Example 191, trans-3-[(3-chloro-2-fluorobenzyl)oxy]-N-[2-fluoro-3-(4-methyl-6-oxo-1,6-dihydropyrimidin-2-yl)-4-(trifluoromethyl)benzyl]cyclobutane-1-carboxamide]	< 1
CCc1cc(=O)[nH]c(-c2c(C(F)(F)F)ccc(CNC(=O)[C@H]3C[C@H](OCc4cccc(Cl)c4F)C3)c2F)n1 [Example 208, trans-3-[(3-chloro-2-fluorobenzyl)oxy]-N-[3-(4-ethyl-6-oxo-1,6-dihydropyrimidin-2-yl)-2-fluoro-4-(trifluoromethyl)benzyl]cyclobutane-1-carboxamide]	8.8
O=c1cc(C(F)(F)F)nc(-c2c(C(F)(F)F)ccc(CNC(=O)[C@H]3C[C@H](OCc4cccc(F)c4)C3)c2F)[nH]1 [Example 152, trans-N-{2-fluoro-3-[6-oxo-4-(trifluoromethyl)-1,6-dihydropyrimidin-2-yl]-4-(trifluoromethyl)benzyl}-3-[(3-fluorobenzyl)oxy]cyclobutane-1-carboxamide]	< 1
O=C(NCc1ccc(C(F)(F)F)c(-c2nc(-c3ccc(C(F)(F)F)cn3)cc(=O)[nH]2)c1F)C1CC(OCc2ccccc2)C1 (stereo not drawn) [Example 266, 3-(benzyloxy)-N-(2-fluoro-3-{6-oxo-4-[5-(trifluoromethyl)pyridin-2-yl]-1,6-dihydropyrimidin-2-yl}-4-(trifluoromethyl)benzyl)cyclobutane-1-carboxamide]	< 1
Cc1cc(=O)[nH]c(-c2c(C(F)(F)F)ccc(CNC(=O)[C@H]3C[C@H](OCc4ccc(C(F)(F)F)cc4)C3)c2F)n1 [Example 183, trans-N-[2-fluoro-3-(4-methyl-6-oxo-1,6-dihydropyrimidin-2-yl)-4-(trifluoromethyl)benzyl]-3-{[4-(trifluoromethyl)benzyl]oxy}cyclobutane-1-carboxamide]	10
CCc1nc(-c2c(C(F)(F)F)ccc(CNC(=O)[C@H]3C[C@H](OCc4cc(Cl)ccc4F)C3)c2F)[nH]c(=O)c1F [Example 243, trans-3-[(5-chloro-2-fluorobenzyl)oxy]-N-[3-(4-ethyl-5-fluoro-6-oxo-1,6-dihydropyrimidin-2-yl)-2-fluoro-4-(trifluoromethyl)benzyl]cyclobutane-1-carboxamide]	< 1
O=c1cc(C(F)(F)F)nc(-c2c(C(F)(F)F)ccc(CNC(=O)[C@H]3C[C@H](OCc4ccc(F)cc4F)C3)c2F)[nH]1 [Example 148, trans-3-[(2,4-difluorobenzyl)oxy]-N-{2-fluoro-3-[6-oxo-4-(trifluoromethyl)-1,6-dihydropyrimidin-2-yl]-4-(trifluoromethyl)benzyl}cyclobutane-1-carboxamide]	< 1
Cc1cc(=O)[nH]c(-c2c(C(F)(F)F)ccc(CNC(=O)[C@H]3C[C@H](OCc4cccc(F)c4F)C3)c2F)n1 [Example 189, trans-3-[(2,3-difluorobenzyl)oxy]-N-[2-fluoro-3-(4-methyl-6-oxo-1,6-dihydropyrimidin-2-yl)-4-(trifluoromethyl)benzyl]cyclobutane-1-carboxamide]	13
